Results as given in patent publication US8933230B2, “Phosphorus-containing group-substituted quinoline, its preparation process, medical composition containing the compounds and application” (priority 2011, dated 2015).

How the values were obtained:
Assay in all cases: KinomeScan kinase panel
Format in all cases: binding
MET = biological target: T1, MET (Homo sapiens, UniProt P08581)
T1 construct: purchased DiscoveRx Corporation (KinomeScan)
Protocol: (§1) In this example, the compound prepared in Example 10, N1-[4-[[7-[[1-(diethoxyphosphorylmethyl)-4-piperidinyl]methoxyl]-6-methoxyl-4-quinolyl]oxyl]-3-fluorophenyl]-N1′-(4-fluorophenyl)cyclopropane-1,1-dicarboxamide is tested for the inhibitory effect in the 442-kinase panel of KinomeScan™ (www.kinomescan.com) from DiscoveRx Corporation (4215 Sorrento Valley Blvd, San Diego, Calif. 92121) at 1000 nM of the compound concentration, the results are shown in the following Table 5:
(§2) For the detailed information of the screening technique, see Fabian, M. A. et al, Nat., Biotechnol. 2005, 23, 329 and Karaman, M. W. et al, Nat., Biotechnol. 2008, 26, 127. It can be seen from the following representative results that, the compound according to the present invention has significant inhibitory effect on kinases including c-Met, KDR or VEGFR2, RET, PDGFR-β, c-KIT, Flt3, MEK5, DDR1, LOK, CSF1R, EPHA7, EPHA8, EPHB6, MKNK2, BLK, HIPK4, HCK, Flt4 and the mutants thereof

CHEK2 = biological target: T2, CHEK2 (Homo sapiens, UniProt O96017)
T2 construct: purchased DiscoveRx Corporation (KinomeScan)
Protocol: as §1, §2

NEK3 = biological target: T3, NEK3 (Homo sapiens, UniProt P51956)
T3 construct: purchased DiscoveRx Corporation (KinomeScan panel)
Protocol: as §1, §2

STK16 = biological target: T4, STK16 (Homo sapiens, UniProt O75716)
T4 construct: purchased DiscoveRx Corporation (KinomeScan)
Protocol: as §1, §2

TGFBR2 = biological target: T5, TGFBR2 (Homo sapiens, UniProt P37173)
T5 construct: purchased DiscoveRx Corporation (KinomeScan)
T5 sequence (P37173 23-567): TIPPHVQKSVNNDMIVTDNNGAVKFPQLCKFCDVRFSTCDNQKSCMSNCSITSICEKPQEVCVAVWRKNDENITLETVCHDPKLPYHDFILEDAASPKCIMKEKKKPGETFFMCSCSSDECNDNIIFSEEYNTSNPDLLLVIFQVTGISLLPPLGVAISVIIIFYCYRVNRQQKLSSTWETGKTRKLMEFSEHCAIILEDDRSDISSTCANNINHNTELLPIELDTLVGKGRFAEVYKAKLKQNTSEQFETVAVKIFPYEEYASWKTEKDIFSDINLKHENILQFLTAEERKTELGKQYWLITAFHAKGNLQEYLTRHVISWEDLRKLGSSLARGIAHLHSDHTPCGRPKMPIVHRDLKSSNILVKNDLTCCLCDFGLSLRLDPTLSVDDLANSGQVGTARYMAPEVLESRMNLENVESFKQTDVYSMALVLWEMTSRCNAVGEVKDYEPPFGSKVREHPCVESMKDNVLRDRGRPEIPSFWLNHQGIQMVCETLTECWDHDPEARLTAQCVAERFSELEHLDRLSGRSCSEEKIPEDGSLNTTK
Protocol: as §1, §2

JNK2 = biological target: T6, JNK2 (Homo sapiens, UniProt P45984)
T6 construct: purchased DiscoveRx Corporation (KinomeScan)
Protocol: as §1, §2

FLT3(D835H) = biological target: T7, FLT3(D835H) (Homo sapiens, UniProt P36888, D835H)
T7 construct: purchased DiscoveRx Corporation (KinomeScan)
Protocol: as §1, §2

RET (V804M) = biological target: T8, RET (V804M) (Homo sapiens, UniProt P07949, V804M)
T8 construct: purchased DiscoveRx Corporation
Protocol: as §1, §2

CSNK2A1 = biological target: T9, CSNK2A1 (Homo sapiens, UniProt P68400)
T9 construct: purchased DiscoveRx Corporation (KinomeScan)
T9 sequence (P68400 whole entry): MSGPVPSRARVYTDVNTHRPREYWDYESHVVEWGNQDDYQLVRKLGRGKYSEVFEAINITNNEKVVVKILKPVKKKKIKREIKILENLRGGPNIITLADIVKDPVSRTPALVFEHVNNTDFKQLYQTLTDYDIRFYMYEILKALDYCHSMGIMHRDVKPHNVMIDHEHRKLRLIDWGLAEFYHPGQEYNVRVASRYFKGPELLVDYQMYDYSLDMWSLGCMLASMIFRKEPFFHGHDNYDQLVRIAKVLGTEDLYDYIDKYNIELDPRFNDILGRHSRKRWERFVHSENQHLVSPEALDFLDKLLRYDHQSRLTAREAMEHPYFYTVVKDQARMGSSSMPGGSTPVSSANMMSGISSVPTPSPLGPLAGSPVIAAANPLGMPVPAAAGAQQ
Protocol: as §1, §2

CLK3 = biological target: T10, CLK3 (Homo sapiens, UniProt P49761)
T10 construct: purchased DiscoveRx Corporation (KinomeScan)
T10 sequence (P49761 whole entry): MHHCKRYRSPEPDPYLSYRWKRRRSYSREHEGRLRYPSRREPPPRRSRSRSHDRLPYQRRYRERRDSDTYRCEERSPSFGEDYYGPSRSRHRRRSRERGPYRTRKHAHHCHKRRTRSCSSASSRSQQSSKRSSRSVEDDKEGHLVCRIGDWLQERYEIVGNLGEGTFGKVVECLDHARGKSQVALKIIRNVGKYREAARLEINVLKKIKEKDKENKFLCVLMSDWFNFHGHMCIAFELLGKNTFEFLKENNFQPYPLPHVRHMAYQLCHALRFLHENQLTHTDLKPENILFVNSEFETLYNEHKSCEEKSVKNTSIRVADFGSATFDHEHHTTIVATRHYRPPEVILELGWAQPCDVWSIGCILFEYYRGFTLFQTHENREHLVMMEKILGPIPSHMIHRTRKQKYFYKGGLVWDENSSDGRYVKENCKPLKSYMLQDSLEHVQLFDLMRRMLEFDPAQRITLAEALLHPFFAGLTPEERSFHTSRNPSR
Protocol: as §1, §2

DDR2 = biological target: T11, DDR2 (Homo sapiens, UniProt Q16832)
T11 construct: purchased DiscoveRx Corporation (KinomeScan)
T11 sequence (Q16832 22-855): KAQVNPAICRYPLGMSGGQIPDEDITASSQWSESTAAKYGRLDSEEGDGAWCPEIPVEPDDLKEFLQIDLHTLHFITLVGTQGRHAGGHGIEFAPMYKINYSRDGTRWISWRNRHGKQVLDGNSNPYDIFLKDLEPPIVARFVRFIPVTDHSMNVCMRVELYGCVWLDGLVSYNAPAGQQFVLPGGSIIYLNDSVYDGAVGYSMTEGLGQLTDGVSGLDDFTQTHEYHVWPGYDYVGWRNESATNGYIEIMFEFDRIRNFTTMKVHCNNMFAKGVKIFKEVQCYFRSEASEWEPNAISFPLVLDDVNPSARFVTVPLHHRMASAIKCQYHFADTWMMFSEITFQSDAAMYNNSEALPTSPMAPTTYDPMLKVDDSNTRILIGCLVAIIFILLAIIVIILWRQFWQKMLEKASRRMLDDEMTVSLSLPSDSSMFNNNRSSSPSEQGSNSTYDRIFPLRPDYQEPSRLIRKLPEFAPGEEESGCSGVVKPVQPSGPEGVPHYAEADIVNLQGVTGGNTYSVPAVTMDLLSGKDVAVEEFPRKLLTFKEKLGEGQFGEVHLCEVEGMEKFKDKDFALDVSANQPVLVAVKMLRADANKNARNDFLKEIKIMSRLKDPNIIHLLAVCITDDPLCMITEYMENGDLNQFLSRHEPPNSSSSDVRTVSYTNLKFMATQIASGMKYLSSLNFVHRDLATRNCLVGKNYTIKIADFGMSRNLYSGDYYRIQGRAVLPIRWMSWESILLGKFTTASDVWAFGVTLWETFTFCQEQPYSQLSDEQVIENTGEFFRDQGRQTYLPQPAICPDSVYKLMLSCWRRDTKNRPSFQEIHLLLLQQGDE
Protocol: as §1, §2

ERK3 = biological target: T12, ERK3 (Homo sapiens, UniProt Q16659)
T12 construct: purchased DiscoveRx Corporation (KinomeScan)
T12 sequence (Q16659 whole entry): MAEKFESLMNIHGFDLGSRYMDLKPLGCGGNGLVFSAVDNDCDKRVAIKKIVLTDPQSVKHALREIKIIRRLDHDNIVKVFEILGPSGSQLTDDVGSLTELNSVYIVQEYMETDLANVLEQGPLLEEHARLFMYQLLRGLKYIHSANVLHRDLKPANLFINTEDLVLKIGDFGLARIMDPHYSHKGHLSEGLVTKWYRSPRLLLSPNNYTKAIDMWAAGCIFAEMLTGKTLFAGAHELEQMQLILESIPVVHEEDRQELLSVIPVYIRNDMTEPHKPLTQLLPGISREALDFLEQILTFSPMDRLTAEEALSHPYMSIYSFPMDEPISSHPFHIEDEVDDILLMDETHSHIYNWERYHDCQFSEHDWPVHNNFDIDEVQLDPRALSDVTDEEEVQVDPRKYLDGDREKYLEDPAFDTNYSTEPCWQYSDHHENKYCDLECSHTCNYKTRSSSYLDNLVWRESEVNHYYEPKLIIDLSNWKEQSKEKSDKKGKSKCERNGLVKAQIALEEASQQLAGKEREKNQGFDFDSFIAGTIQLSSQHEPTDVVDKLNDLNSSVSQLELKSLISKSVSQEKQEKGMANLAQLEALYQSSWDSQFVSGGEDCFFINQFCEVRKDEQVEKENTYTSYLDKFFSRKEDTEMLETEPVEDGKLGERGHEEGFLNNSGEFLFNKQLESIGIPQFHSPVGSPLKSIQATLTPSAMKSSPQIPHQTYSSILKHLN
Protocol: as §1, §2

PIM3 = biological target: T13, PIM3 (Homo sapiens, UniProt Q86V86)
T13 construct: purchased DiscoveRx Corporation (KinomeScan)
Protocol: as §1, §2

ERBB3 = biological target: T14, ERBB3 (Homo sapiens, UniProt P21860)
T14 construct: purchased DiscoveRx Corporation (KinomeScan)
Protocol: as §1, §2

MAK = biological target: T15, MAK (Homo sapiens, UniProt P20794)
T15 construct: purchased DiscoveRx Corporation (KinomeScan)
Protocol: as §1, §2

PHKG1 = biological target: T16, PHKG1 (Homo sapiens, UniProt Q16816)
T16 construct: purchased DiscoveRx Corporation (KinomeScan)
Protocol: as §1, §2

CAMK1D = biological target: T17, CAMK1D (Homo sapiens, UniProt Q8IU85)
T17 construct: purchased DiscoveRx Corporation (KinomeScan)
T17 sequence (Q8IU85 whole entry): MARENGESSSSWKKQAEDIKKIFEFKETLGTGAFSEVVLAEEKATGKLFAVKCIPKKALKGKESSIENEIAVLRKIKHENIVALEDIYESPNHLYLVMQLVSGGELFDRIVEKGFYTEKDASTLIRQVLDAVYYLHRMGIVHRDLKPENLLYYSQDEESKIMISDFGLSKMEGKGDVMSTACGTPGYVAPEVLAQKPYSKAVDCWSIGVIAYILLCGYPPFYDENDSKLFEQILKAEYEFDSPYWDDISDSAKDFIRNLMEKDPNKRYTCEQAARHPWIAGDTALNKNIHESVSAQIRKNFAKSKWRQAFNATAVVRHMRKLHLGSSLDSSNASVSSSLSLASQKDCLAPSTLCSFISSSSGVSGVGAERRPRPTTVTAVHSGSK
Protocol: as §1, §2

[1] = biological target: T18, ABL1(Q252H)-phosphorylated (Homo sapiens, UniProt P00519, Q252H)
T18 construct: purchased DiscoveRx Corporation (KinomeScan)
Protocol: as §1, §2

GRK1 = biological target: T19, GRK1 (Homo sapiens, UniProt Q15835)
T19 construct: purchased DiscoveRx Corporation (KinomeScan)
Protocol: as §1, §2

EGFR(S752-1759del) = biological target: T20, EGFR(S752-1759del) (Homo sapiens, UniProt P00533, DEL752-759)
T20 construct: purchased DiscoveRx Corporation (KinomeScan)
Protocol: as §1, §2

MRCKB = biological target: T21, MRCKB (Homo sapiens, UniProt Q9Y5S2)
T21 construct: purchased DiscoveRx Corporation (KinomeScan)
Protocol: as §1, §2

MKK7 = biological target: T22, MKK7 (Homo sapiens, UniProt O14733)
T22 construct: purchased DiscoveRx Corporation (KinomeScan)
Protocol: as §1, §2

IKK-alpha = biological target: T23, IKK-alpha (Homo sapiens, UniProt O15111)
T23 construct: purchased DiscoveRx Corporation (KinomeScan)
Protocol: as §1, §2

PIK3CA(E542K) = biological target: T24, PIK3CA(E542K) (Homo sapiens, UniProt P42336, E542K)
T24 construct: purchased DiscoveRx Corporation (KinomeScan)
Protocol: as §1, §2

CAMK4 = biological target: T25, CAMK4 (Homo sapiens, UniProt Q16566)
T25 construct: purchased DiscoveRx Corporation (KinomeScan)
Protocol: as §1, §2

TRKB = biological target: T26, TRKB (Homo sapiens, UniProt Q16620)
T26 construct: purchased DiscoveRx Corporation (KinomeScan)
Protocol: as §1, §2

FES = biological target: T27, FES (Homo sapiens, UniProt P07332)
T27 construct: purchased DiscoveRx Corporation (KinomeScan)
Protocol: as §1, §2

TLK1 = biological target: T28, TLK1 (Homo sapiens, UniProt Q9UKI8)
T28 construct: purchased DiscoveRx Corporation (KinomeScan)
T28 sequence (Q9UKI8 whole entry): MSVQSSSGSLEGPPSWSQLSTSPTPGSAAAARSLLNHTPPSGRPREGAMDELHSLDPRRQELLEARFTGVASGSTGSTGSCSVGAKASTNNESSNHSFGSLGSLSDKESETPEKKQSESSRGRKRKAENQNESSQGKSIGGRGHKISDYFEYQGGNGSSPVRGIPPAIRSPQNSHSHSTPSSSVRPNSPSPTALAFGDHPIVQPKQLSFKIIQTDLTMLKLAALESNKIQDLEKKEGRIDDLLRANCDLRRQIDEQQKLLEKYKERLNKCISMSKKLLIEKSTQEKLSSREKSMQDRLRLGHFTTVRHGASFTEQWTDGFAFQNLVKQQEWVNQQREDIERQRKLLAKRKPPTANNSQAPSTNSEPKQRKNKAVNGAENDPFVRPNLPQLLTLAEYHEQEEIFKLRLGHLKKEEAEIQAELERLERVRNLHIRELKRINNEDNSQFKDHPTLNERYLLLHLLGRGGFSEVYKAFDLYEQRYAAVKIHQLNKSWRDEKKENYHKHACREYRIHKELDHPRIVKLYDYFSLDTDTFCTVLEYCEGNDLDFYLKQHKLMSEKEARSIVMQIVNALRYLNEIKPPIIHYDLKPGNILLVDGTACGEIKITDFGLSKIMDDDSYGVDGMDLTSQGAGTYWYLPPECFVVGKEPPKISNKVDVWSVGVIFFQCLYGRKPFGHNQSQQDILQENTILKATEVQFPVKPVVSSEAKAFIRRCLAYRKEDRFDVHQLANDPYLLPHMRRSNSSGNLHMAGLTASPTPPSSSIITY
Protocol: as §1, §2

LIMK1 = biological target: T29, LIMK1 (Homo sapiens, UniProt P53667)
T29 construct: purchased DiscoveRx Corporation (KinomeScan)
Protocol: as §1, §2

PIK3CA(18DDL) = biological target: T30, PIK3CA(18DDL) (Homo sapiens, UniProt P42336, I800L)
T30 construct: purchased DiscoveRx Corporation (KinomeScan)
Protocol: as §1, §2

PKMYT1 = biological target: T31, PKMYT1 (Homo sapiens, UniProt Q99640)
T31 construct: purchased DiscoveRx Corporation (KinomeScan)
Protocol: as §1, §2

CSF1R = biological target: T32, CSF1R (Homo sapiens, UniProt P07333)
T32 construct: purchased DiscoveRx Corporation (KinomeScan)
Protocol: as §1, §2

MARK1 = biological target: T33, MARK1 (Homo sapiens, UniProt Q9P0L2)
T33 construct: purchased DiscoveRx Corporation (KinomeScan)
T33 sequence (Q9P0L2 whole entry): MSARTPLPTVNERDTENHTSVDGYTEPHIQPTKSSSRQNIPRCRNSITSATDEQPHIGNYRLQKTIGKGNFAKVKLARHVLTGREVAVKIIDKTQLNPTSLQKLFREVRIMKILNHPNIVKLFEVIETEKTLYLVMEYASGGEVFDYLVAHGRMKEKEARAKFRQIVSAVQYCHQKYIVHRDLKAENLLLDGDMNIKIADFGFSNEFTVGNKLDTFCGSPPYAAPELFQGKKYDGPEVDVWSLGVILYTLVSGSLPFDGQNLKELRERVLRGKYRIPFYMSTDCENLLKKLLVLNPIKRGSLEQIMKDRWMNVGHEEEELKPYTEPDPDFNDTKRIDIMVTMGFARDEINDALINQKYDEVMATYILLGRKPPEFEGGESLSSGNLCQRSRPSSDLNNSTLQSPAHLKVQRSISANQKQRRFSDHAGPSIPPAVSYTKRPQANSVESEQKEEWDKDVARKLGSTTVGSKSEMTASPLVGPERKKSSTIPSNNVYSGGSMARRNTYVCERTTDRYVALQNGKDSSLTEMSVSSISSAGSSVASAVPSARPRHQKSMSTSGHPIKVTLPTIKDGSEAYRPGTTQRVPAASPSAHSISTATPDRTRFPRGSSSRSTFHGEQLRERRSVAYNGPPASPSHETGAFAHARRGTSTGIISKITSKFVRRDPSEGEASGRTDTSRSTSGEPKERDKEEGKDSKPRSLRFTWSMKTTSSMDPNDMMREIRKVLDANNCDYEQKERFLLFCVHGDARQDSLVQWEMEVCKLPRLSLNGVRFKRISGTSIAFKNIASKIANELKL
Protocol: as §1, §2

MST2 = biological target: T34, MST2 (Homo sapiens, UniProt Q13188)
T34 construct: purchased DiscoveRx Corporation (KinomeScan)
Protocol: as §1, §2

DDR1 = biological target: T35, DDR1 (Homo sapiens, UniProt Q08345)
T35 construct: purchased DiscoveRx Corporation (KinomeScan)
Protocol: as §1, §2

PIM2 = biological target: T36, PIM2 (Homo sapiens, UniProt Q9P1W9)
T36 construct: purchased DiscoveRx Corporation (KinomeScan)
Protocol: as §1, §2

For `CCOP(=O)(CN1CCC(COc2cc3nccc(Oc4ccc(NC(=O)C5(C(=O)Nc6ccc(F)cc6)CC5)cc4F)c3cc2OC)CC1)OCC` [Example 10, N1-[4-[[7-[[1-(diethoxyphosphorylmethyl)-4-piperidinyl]methoxyl]-6-methoxyl-4-quinolyl]oxyl]-3-fluorophenyl]-N1′-(4-fluorophenyl)cyclopropane-1,1-dicarboxamide], the “% Ctrl@1000 nM” value (MET) was 7.7 % Ctrl, the “% Ctrl@1000 nM” value (CHEK2) was 35 % Ctrl and the “% Ctrl@1000 nM” value (NEK3) was 58 % Ctrl. The “% Ctrl@1000 nM” value (STK16) was 77 % Ctrl, the “% Ctrl@1000 nM” value (TGFBR2) was 100 % Ctrl and the “% Ctrl@1000 nM” value (JNK2) was 93 % Ctrl. For the same molecule, the “% Ctrl@1000 nM” value (FLT3(D835H)) was 0.6 % Ctrl, the “% Ctrl@1000 nM” value (RET (V804M)) was 0.6 % Ctrl and the “% Ctrl@1000 nM” value (CSNK2A1) was 100 % Ctrl. The “% Ctrl@1000 nM” value (CLK3) was 100 % Ctrl, the “% Ctrl@1000 nM” value (DDR2) was 7.8 % Ctrl and the “% Ctrl@1000 nM” value (ERK3) was 100 % Ctrl. The “% Ctrl@1000 nM” value (PIM3) was 67 % Ctrl, the “% Ctrl@1000 nM” value (ERBB3) was 98 % Ctrl and the “% Ctrl@1000 nM” value (MAK) was 100 % Ctrl. For the same molecule, the “% Ctrl@1000 nM” value (PHKG1) was 100 % Ctrl, the “% Ctrl@1000 nM” value (CAMK1D) was 96 % Ctrl and the “% Ctrl@1000 nM” value [1] was 84 % Ctrl. For the same molecule, the “% Ctrl@1000 nM” value (GRK1) was 100 % Ctrl, the “% Ctrl@1000 nM” value (EGFR(S752-1759del)) was 82 % Ctrl and the “% Ctrl@1000 nM” value (MRCKB) was 100 % Ctrl. The “% Ctrl@1000 nM” value (MKK7) was 100 % Ctrl, the “% Ctrl@1000 nM” value (IKK-alpha) was 100 % Ctrl and the “% Ctrl@1000 nM” value (PIK3CA(E542K)) was 100 % Ctrl. The “% Ctrl@1000 nM” value (CAMK4) was 100 % Ctrl, the “% Ctrl@1000 nM” value (TRKB) was 4 % Ctrl and the “% Ctrl@1000 nM” value (FES) was 44 % Ctrl. The “% Ctrl@1000 nM” value (TLK1) was 88 % Ctrl, the “% Ctrl@1000 nM” value (LIMK1) was 92 % Ctrl and the “% Ctrl@1000 nM” value (PIK3CA(18DDL)) was 100 % Ctrl. The “% Ctrl@1000 nM” value (PKMYT1) was 100 % Ctrl, the “% Ctrl@1000 nM” value (CSF1R) was 0.25 % Ctrl and the “% Ctrl@1000 nM” value (MARK1) was 100 % Ctrl. The “% Ctrl@1000 nM” value (MST2) was 100 % Ctrl, the “% Ctrl@1000 nM” value (DDR1) was 0 % Ctrl and the “% Ctrl@1000 nM” value (PIM2) was 67 % Ctrl.
